What was measured:
rCsHK [1] = molecular target: T1, rCsHK (Clonorchis sinensis, UniProt G7YJ23); experiment: G6PD-coupled NADPH formation at […] nm, Hill fit; assay type: biochemical; conditions: 3 mM glucose, 15 mM MgCl2, pH 8.5
T1 construct: gene CLF_109217
T1 sequence (G7YJ23 1-449): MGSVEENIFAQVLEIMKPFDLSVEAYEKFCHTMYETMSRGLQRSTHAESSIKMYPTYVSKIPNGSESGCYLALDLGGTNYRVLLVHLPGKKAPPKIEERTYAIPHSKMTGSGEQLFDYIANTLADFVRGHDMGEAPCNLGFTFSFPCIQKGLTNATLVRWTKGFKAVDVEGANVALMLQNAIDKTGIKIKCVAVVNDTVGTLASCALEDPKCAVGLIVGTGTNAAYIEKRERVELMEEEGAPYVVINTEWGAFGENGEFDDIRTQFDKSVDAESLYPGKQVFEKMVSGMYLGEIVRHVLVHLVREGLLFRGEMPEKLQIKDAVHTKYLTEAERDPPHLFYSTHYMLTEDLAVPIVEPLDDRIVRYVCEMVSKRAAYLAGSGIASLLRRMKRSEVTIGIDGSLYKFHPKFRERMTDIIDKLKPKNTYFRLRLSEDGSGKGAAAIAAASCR

rCsHK [2] = molecular target: T1, rCsHK; experiment: G6PD-coupled NADPH formation at […] nm; assay type: biochemical; conditions: read-out: % inhibition at 10 mM

SMILES | inhibition at 10000 µM (rCsHK [2]) | further results
Nc1ncnc2c1ncn2[C@@H]1O[C@H](COP(=O)(O)O)[C@@H](O)[C@H]1O [AMP] |  | G6PD-coupled NADPH formation at 340 nm, Hill fit (rCsHK [1]; 0-5 mM, allosteric activator, mixed K+V+ with respect to ATP): AMP exhibited a mixed allosteric K+V+ effect
Nc1ncnc2c1ncn2[C@@H]1O[C@H](COP(=O)(O)OP(=O)(O)OP(=O)(O)O)[C@@H](O)[C@H]1O [ATP] | 13.8% | 
Nc1ccn([C@@H]2O[C@H](COP(=O)(O)OP(=O)(O)OP(=O)(O)O)[C@@H](O)[C@H]2O)c(=O)n1 [CTP] | 8.6% | 
C=C(OP(=O)(O)O)C(=O)O [PEP] |  | G6PD-coupled NADPH formation at 340 nm, Hill fit (rCsHK [1]; 0-10 mM, allosteric activator, mixed K+V+ with respect to ATP): PEP displayed allosteric activation of rCsHK with respect to ATP
Cc1cn([C@H]2C[C@H](O)[C@@H](COP(=O)(O)OP(=O)(O)OP(=O)(O)O)O2)c(=O)[nH]c1=O [TTP] | 14.3% | 
O=C(O)CC(O)(CC(=O)O)C(=O)O [citrate] |  | G6PD-coupled NADPH formation at 340 nm, Hill fit (rCsHK [1]; 0-10 mM, allosteric, K+V+ activator at 5 and 10 mM, net inhibition (K-V+) at 2 mM, with respect to ATP): Citrate exhibited an unusual mixed allosteric effect on rCsHK with respect to ATP

From paper PMC4370448, “Advanced Enzymology, Expression Profile and Immune Response of Clonorchis sinensis Hexokinase Show Its Application Potential for Prevention and Control of Clonorchiasis” (PLoS Neglected Tropical Diseases, 2015)
